Patent US9155312B2, “Fungicidal combinations of active ingredients” (Bayer Intellectual Property GmbH, priority 2004, dated 2015)

Tested on: Erysiphe graminis f.sp. tritici
Experiment: Erysiphe test (wheat)/curative
Type: in vivo
Conditions: curative, sprayed 48 hours after inoculation, evaluation 7 days after inoculation
Experimental: Erysiphe Test (Wheat)/Curative
To prepare a suitable preparation of active compound, a commercial formulation of active compound is diluted with water to the desired concentration.
To test for curative activity, young plants were dusted with spores of Erysiphe graminis f.sp. tritici. 48 hours after the inoculation, the plants were sprayed with the preparation of active compound at the stated application rates.
The plants were placed in a greenhouse at a temperature of about 20° C. and a relative atmospheric humidity of about 80% to promote the development of mildew pustules.
Evaluation was carried out 7 days after the inoculation. 0% means an efficacy which corresponds to that of the control, whereas an efficacy of 100% means that no infection is observed.

| SMILES | efficacy in % found (application rate 125 g/ha) [%] | efficacy in % found (application rate 25 g/ha) [%] |
| --- | --- | --- |
| OC(Cc1ccccc1Cl)(Cn1nc[nH]c1=S)C1(Cl)CC1 (stereo not drawn) [Prothioconazole, prothioconazole] | 43 |  |
| CO/N=C(/C1=NOCCO1)c1ccccc1Oc1ncnc(Oc2ccccc2Cl)c1F [Fluoxastrobin, fluoxastrobin] | 0 |  |
| CCCN(CC)CC1COC2(CCC(C(C)(C)C)CC2)O1 (stereo not drawn) [Spiroxamin, spiroxamine] | 0 |  |
| CO/N=C(/C(=O)OC)c1ccccc1CO/N=C(\C)c1cccc(C(F)(F)F)c1 [Trifloxystrobin, trifloxystrobin] | 86 |  |
| CCOC(=O)C1=NN(c2ccc(Cl)cc2Cl)C(C)(C(=O)OCC)C1 (stereo not drawn) [Mefenpyr, diethyl 1-(2,4-dichlorophenyl)-4,5-dihydro-5-methyl-1H-pyrazole-3,5-dicarboxylate] |  | 0 |
| CC(C)(C)C(O)(CCc1ccc(Cl)cc1)Cn1cncn1 (stereo not drawn) [Tebuconazole, tebuconazole] | 57 |  |
